Values joined by “and” are separate entries in the source; they are usually repeats but may differ in a detail not shown here. Equal entries are not always repeated. Where two headings read alike, the source gives them in different places.
Legend:
[1] = system: DON toxin biosynthesis of carbendazim-resistant fusarium asiaticum; assay: microbe, parasite or virus in culture; type: cell-based; settings: Fusarium asiaticum, read-out: DON Biosynthesis Inhibition Rate
rust [2] = type: in vivo
[3] = design: species or system wheat; settings: in vivo
powdery mildew [4] = type: in vivo
rust [5] = type: in vivo; settings: Serial 5: preparation 100; jinggangmycin 20, metconazole 0 g ai./mu
powdery mildew [6] = type: in vivo; settings: dose as in E145
leaf blight [7] = type: in vivo; settings: dose as in E154
leaf rust fungus = type: in vivo; settings: seed treatment; dose as in E133
wheat scab [8] = type: in vivo, Fusarium spp.
[9] = design: species or system wheat; settings: in vivo; remark: listed apart in the source
powdery mildew [10] = type: in vivo; settings: Serial 5: preparation 100 g/mu; jinggangmycin 20, metconazole 0 g ai./mu
powdery mildew [11] = type: in vivo; settings: dose as in E154
rust [12] = type: in vivo; settings: dose as in E145
[13] = type: in vivo, wheat; settings: dose as in E162
wheat scab [14] = type: in vivo, Fusarium spp.; settings: Serial 5: preparation 100 g/mu; jinggangmycin 20, metconazole 0 g ai./mu
rust [15] = type: in vivo; remark: listed apart in the source
powdery mildew [16] = type: in vivo; remark: listed apart in the source
[17] = type: in vivo, barley; settings: dose as in E154
rust [18] = type: in vivo; remark: listed apart in the source
rust [19] = type: in vivo; settings: dose as in E154
[20] = type: in vivo, wheat
leaf blight [21] = type: in vivo; settings: Serial 5: preparation 100; jinggangmycin 20, metconazole 0 g ai./mu
leaf blight [22] = type: in vivo
powdery mildew fungus = type: in vivo; settings: seed treatment; dose as in E133
leaf blight [23] = type: in vivo; remark: listed apart in the source
leaf blight [24] = type: in vivo; settings: Serial 5: preparation 100 g/mu; jinggangmycin 20, metconazole 0 g ai./mu
[25] = type: in vivo, wheat; remark: listed apart in the source
wheat scab [26] = type: in vivo, Fusarium spp.; remark: listed apart in the source
rust [27] = type: in vivo; settings: Serial 5: preparation 100 g/mu; jinggangmycin 20, metconazole 0 g ai./mu
Fusarium graminearum = assay: microbe, parasite or virus in culture; type: cell-based; settings: for inhibition at 50 µg/mL: Fusarium graminearum; for Average Fungal Colony Diameter F.g: sensitive strains
[28] = Serial 5: preparation 100 g/mu, jinggangmycin 20 g ai./mu alone
[29] = Serial 6: preparation 80 g/mu, jinggangmycin 16 g ai./mu alone
[30] = Serial 7: preparation 40 g/mu, jinggangmycin 8 g ai./mu alone
[31] = Serial 8: preparation 20 g/mu, jinggangmycin 4 g ai./mu alone
[32] = Serial 5: preparation 50 g/mu, jinggangmycin 10 g ai./mu alone
[33] = Serial 6: preparation 37.5 g/mu, jinggangmycin 7.5 g ai./mu alone
[34] = Serial 7: preparation 15 g/mu, jinggangmycin 3 g ai./mu alone
[35] = Serial 11: jinggangmycin 36 g ai./mu alone
[36] = Serial 12: jinggangmycin 18 g ai./mu alone
[37] = Serial 13: jinggangmycin 15 g ai./mu alone
[38] = Serial 14: jinggangmycin 7.5 g ai./mu alone
[39] = Serial 15: jinggangmycin 5 g ai./mu alone
[40] = Serial 16: jinggangmycin 2.5 g ai./mu alone
[41] = Serial 17: jinggangmycin 3 g ai./mu alone
[42] = Serial 18: jinggangmycin 1.5 g ai./mu alone
[43] = Serial 19: jinggangmycin 1 g ai./mu alone
[44] = Serial 20: jinggangmycin 0.5 g ai./mu alone
[45] = Serial 5: preparation 75 g/mu, jinggangmycin 15 g ai./mu alone
[46] = Serial 6: preparation 60 g/mu, jinggangmycin 12 g ai./mu alone
[47] = Serial 7: preparation 45 g/mu, jinggangmycin 9 g ai./mu alone
[48] = Serial 8: preparation 30 g/mu, jinggangmycin 6 g ai./mu alone

## OCC1=C[C@H](NC2C[C@H](CO)[C@@H](OC3O[C@H](CO)[C@@H](O)[C@H](O)[C@H]3O)[C@H](O)[C@H]2O)[C@H](O)[C@@H](O)[C@@H]1O (stereo partly shown) [Jinggangmycin A, jinggangmycin A]
[1]; 168 h
  inhibition at 1 µg/mL: 28.6%
  inhibition at 10 µg/mL: 35.5%
  inhibition at 100 µg/mL: 45.2%
  inhibition at 1000 µg/mL: 65.5%
  inhibition at 10000 µg/mL: 75.9%
[1]; 336 h
  inhibition at 1 µg/mL: 1.7%
  inhibition at 10 µg/mL: 7.87%
  inhibition at 100 µg/mL: 29.9%
  inhibition at 1000 µg/mL: 57%
  inhibition at 10000 µg/mL: 75.4%
Rust [2]; [28]
  Disease Index Prevention Effect % Rust: 6.8%
Rust [2]; [29]
  Disease Index Prevention Effect % Rust: 6.5%
Rust [2]; [30]
  Disease Index Prevention Effect % Rust: 0%
Rust [2]; [31]
  Disease Index Prevention Effect % Rust: 0%
[3]
  Thousand Kernel Weight: 39.2 g and 41.1 g and 39.8 g and 39.5 g
Powdery mildew [4]; [32]
  Disease Index Prevention Effect % Powdery Mildew: 12.6%
Powdery mildew [4]; [33]
  Disease Index Prevention Effect % Powdery Mildew: 11.9%
Powdery mildew [4]; [34]
  Disease Index Prevention Effect % Powdery Mildew: 0%
Rust [5]
  Disease Index Prevention Effect % Rust: 6.5%
Powdery mildew [6]
  Disease Index Prevention Effect % Powdery Mildew: 7.5% and 4.5% and 0%
Leaf blight [7]
  Disease Index Prevention Effect % Leaf Blight: 0% and 6.9%
Leaf rust fungus
  Incidence Prevention Effect % Rust: 0% and 4.5%
Wheat scab [8]; [28]
  Disease Index Prevention Effect % Head Blight: 32.0%
Wheat scab [8]; [29]
  Disease Index Prevention Effect % Head Blight: 25.4%
Wheat scab [8]; [30]
  Disease Index Prevention Effect % Head Blight: 14.7%
Wheat scab [8]; [31]
  Disease Index Prevention Effect % Head Blight: 0%
[9]
  Thousand Kernel Weight: 39.6 g and 39.0 g and 37.9 g
Powdery mildew [10]
  Disease Index Prevention Effect % Powdery Mildew: 10.6%
Powdery mildew [11]
  Disease Index Prevention Effect % Powdery Mildew: 0% and 3.4%
Rust [12]
  Disease Index Prevention Effect % Rust: 4.9% and 3.8% and 0%
[13]
  Grain Toxin Content: 2.89 μg/g of kernels and 3.24 μg/g of kernels and 3.86 μg/g of kernels and 4.20 μg/g of kernels and 4.77 μg/g of kernels
Wheat scab [14]
  Disease Index Prevention Effect % Head Blight: 40.2%
Rust [15]; [35]
  Disease Index Prevention Effect % Rust: 7.6%
Rust [15]; [36]
  Disease Index Prevention Effect % Rust: 7.2%
Rust [15]; [37]
  Disease Index Prevention Effect % Rust: 7.2%
Rust [15]; [38]
  Disease Index Prevention Effect % Rust: 0%
Rust [15]; [39]
  Disease Index Prevention Effect % Rust: 0%
Rust [15]; [40]
  Disease Index Prevention Effect % Rust: 0%
Rust [15]; [41]
  Disease Index Prevention Effect % Rust: 0%
Rust [15]; [42]
  Disease Index Prevention Effect % Rust: 0%
Rust [15]; [43]
  Disease Index Prevention Effect % Rust: 0%
Rust [15]; [44]
  Disease Index Prevention Effect % Rust: 0%
Powdery mildew [16]; [28]
  Disease Index Prevention Effect % Powdery Mildew: 12.6%
Powdery mildew [16]; [29]
  Disease Index Prevention Effect % Powdery Mildew: 11.9%
Powdery mildew [16]; [30]
  Disease Index Prevention Effect % Powdery Mildew: 0%
Powdery mildew [16]; [31]
  Disease Index Prevention Effect % Powdery Mildew: 0%
[17]
  Grain Toxin Content: 6.67 mg of DON/Kg of grain and 5.28 mg of DON/Kg of grain and 4.62 mg of DON/Kg of grain and 3.86 mg of DON/Kg of grain and 3.49 mg of DON/Kg of grain
Rust [18]; [32]
  Disease Index Prevention Effect % Rust: 6.8%
Rust [18]; [33]
  Disease Index Prevention Effect % Rust: 6.5%
Rust [18]; [34]
  Disease Index Prevention Effect % Rust: 0%
Rust [19]
  Disease Index Prevention Effect % Rust: 0%
[20]; [35]
  Grain Toxin Content (mg of DON/Kg of grain): 2.61 mg of DON/Kg of grain
  Rate of Decrease in Toxin Content in Grains (%): 59.6%
[20]; [36]
  Grain Toxin Content (mg of DON/Kg of grain): 2.86 mg of DON/Kg of grain
  Rate of Decrease in Toxin Content in Grains (%): 55.7%
[20]; [37]
  Grain Toxin Content (mg of DON/Kg of grain): 2.94 mg of DON/Kg of grain
  Rate of Decrease in Toxin Content in Grains (%): 54.5%
[20]; [38]
  Grain Toxin Content (mg of DON/Kg of grain): 3.42 mg of DON/Kg of grain
  Rate of Decrease in Toxin Content in Grains (%): 47.1%
[20]; [39]
  Grain Toxin Content (mg of DON/Kg of grain): 3.86 mg of DON/Kg of grain
  Rate of Decrease in Toxin Content in Grains (%): 40.2%
[20]; [40]
  Grain Toxin Content (mg of DON/Kg of grain): 3.92 mg of DON/Kg of grain
  Rate of Decrease in Toxin Content in Grains (%): 39.3%
[20]; [41]
  Grain Toxin Content (mg of DON/Kg of grain): 3.96 mg of DON/Kg of grain
  Rate of Decrease in Toxin Content in Grains (%): 38.7%
[20]; [42]
  Grain Toxin Content (mg of DON/Kg of grain): 4.82 mg of DON/Kg of grain
  Rate of Decrease in Toxin Content in Grains (%): 25.4%
[20]; [43]
  Grain Toxin Content (mg of DON/Kg of grain): 5.80 mg of DON/Kg of grain
  Rate of Decrease in Toxin Content in Grains (%): 10.2%
[20]; [44]
  Grain Toxin Content (mg of DON/Kg of grain): 5.86 mg of DON/Kg of grain
  Rate of Decrease in Toxin Content in Grains (%): 9.3%
Leaf blight [21]
  Disease Index Prevention Effect % Leaf Blight: 7.8%
Leaf blight [22]; [28]
  Disease Index Prevention Effect % Leaf Blight: 8.6%
Leaf blight [22]; [29]
  Disease Index Prevention Effect % Leaf Blight: 8.8%
Leaf blight [22]; [30]
  Disease Index Prevention Effect % Leaf Blight: 5.8%
Leaf blight [22]; [31]
  Disease Index Prevention Effect % Leaf Blight: 0%
Powdery mildew fungus
  Incidence Prevention Effect % Powdery Mildew: 0% and 6.5%
Leaf blight [23]; [32]
  Disease Index Prevention Effect % Leaf Blight: 8.6%
Leaf blight [23]; [33]
  Disease Index Prevention Effect % Leaf Blight: 8.8%
Leaf blight [23]; [34]
  Disease Index Prevention Effect % Leaf Blight: 5.8%
Leaf blight [24]
  Disease Index Prevention Effect % Leaf Blight: 7.8%
[25]; [45]
  Grain Toxin Content mg of DON/kg of grain: 2.86 mg of DON/kg of grain
  Toxin Reduction Percentage %: 36.7%
[25]; [46]
  Grain Toxin Content mg of DON/kg of grain: 3.82 mg of DON/kg of grain
  Toxin Reduction Percentage %: 15.5%
[25]; [47]
  Grain Toxin Content mg of DON/kg of grain: 4.02 mg of DON/kg of grain
  Toxin Reduction Percentage %: 11.1%
[25]; [48]
  Grain Toxin Content mg of DON/kg of grain: 4.14 mg of DON/kg of grain
  Toxin Reduction Percentage %: 8.4%
Wheat scab [26]; [35]
  Disease Index Prevention Effect % Head Blight: 31.6%
Wheat scab [26]; [36]
  Disease Index Prevention Effect % Head Blight: 28.9%
Wheat scab [26]; [37]
  Disease Index Prevention Effect % Head Blight: 24.3%
Wheat scab [26]; [38]
  Disease Index Prevention Effect % Head Blight: 16.9%
Wheat scab [26]; [39]
  Disease Index Prevention Effect % Head Blight: 5.2%
Wheat scab [26]; [40]
  Disease Index Prevention Effect % Head Blight: 0%
Wheat scab [26]; [41]
  Disease Index Prevention Effect % Head Blight: 0%
Wheat scab [26]; [42]
  Disease Index Prevention Effect % Head Blight: 0%
Wheat scab [26]; [43]
  Disease Index Prevention Effect % Head Blight: 0%
Wheat scab [26]; [44]
  Disease Index Prevention Effect % Head Blight: 0%
Rust [27]
  Disease Index Prevention Effect % Rust: 6.5%
Fusarium graminearum; read-out: Growth Inhibition Rate F.g
  inhibition at 50 µg/mL: 6.5%
Fusarium graminearum; read-out: inhibitory effect on the growth of the two types of fusaria
  inhibition at 50 µg/mL: 6.5 to 7.8%
Fusarium graminearum; Jinggangmycin A 0.1 μg/mL
  Average Fungal Colony Diameter F.g: 76.3 mm
Fusarium graminearum; Jinggangmycin A 1.0 μg/mL
  Average Fungal Colony Diameter F.g: 76.2 mm
Fusarium graminearum; Jinggangmycin A 10.0 μg/mL
  Average Fungal Colony Diameter F.g: 75.4 mm
Fusarium graminearum; Jinggangmycin A 50.0 μg/mL
  Average Fungal Colony Diameter F.g: 70.3 mm

Source: patent publication US9949479B2 (priority 2015, dated 2018)
